# Laboratory results published in PubChem BioAssay (NCI).
#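 Protocol summary: plate cells (96-well), add compound at 5 concentrations, incubate 48 h, interpolate endpoints linearly. At the GI50, growth is halved. The concentration for full growth arrest is given as TGI.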
# What was measured:
# Assay in all cases: NCI-60 cell line screen, 48 h
# HOP-62 NSCLC = tested on: HOP-62 NSCLC
# HT29 colon = tested on: HT29 colon
# OVCAR-8 ovarian = tested on: OVCAR-8 ovarian
# UACC-62 melanoma = tested on: UACC-62 melanoma
# TK-10 renal = tested on: TK-10 renal
# OVCAR-4 ovarian = tested on: OVCAR-4 ovarian
# SK-MEL-5 melanoma = tested on: SK-MEL-5 melanoma
# EKVX NSCLC = tested on: EKVX NSCLC
# BT-549 breast = tested on: BT-549 breast
# HL-60(TB) leukemia = tested on: HL-60(TB) leukemia
SMILES,TGI (HOP-62 NSCLC),TGI (HT29 colon),TGI (OVCAR-8 ovarian),TGI (UACC-62 melanoma),TGI (TK-10 renal),TGI (OVCAR-4 ovarian),TGI (SK-MEL-5 melanoma),TGI (EKVX NSCLC),TGI (BT-549 breast),GI50 (HOP-62 NSCLC),GI50 (HT29 colon),GI50 (OVCAR-8 ovarian),GI50 (UACC-62 melanoma),GI50 (HL-60(TB) leukemia),TGI (HL-60(TB) leukemia),GI50 (OVCAR-4 ovarian),GI50 (SK-MEL-5 melanoma),GI50 (EKVX NSCLC),GI50 (BT-549 breast)
O=c1c2sc3ccccc3sc=2c(=O)c2c(Cl)c(Cl)c(Cl)c(Cl)c12,> 100 µM,> 100 µM,> 100 µM,> 100 µM,> 100 µM,> 100 µM,> 100 µM,> 100 µM,> 100 µM,,,,,,,,,,
Cc1cn([C@H]2C[C@@H](N3C(=O)c4ccccc4C3=O)[C@@H](CO[Si](C)(C)C(C)(C)C)O2)c(=O)[nH]c1=O,61.4 µM,51.7 µM,> 100 µM,74.9 µM,> 100 µM,> 100 µM,> 100 µM,> 100 µM,> 100 µM,,,,,,,,,,
CCOc1ccc(NC(=O)C(=O)C(/C(=N/N)C(=O)OC)c2nc3ccc([N+](=O)[O-])cc3[nH]c2=O)cc1 (configuration not stated),> 100 µM,> 100 µM,> 100 µM,> 100 µM,> 100 µM,> 100 µM,> 100 µM,> 100 µM,> 100 µM,,,,,,,,,,
O=[N+]([O-])c1ccc(N/N=C\c2cc(Br)ccc2O)nc1,10.3 µM,> 100 µM,8.86 µM,6.15 µM,,4.02 µM,10.9 µM,7.69 µM,> 100 µM,1.59 µM,4.27 µM,0.415 µM,1.86 µM,0.314 µM,> 100 µM,0.543 µM,1.32 µM,2.4 µM,4.95 µM
O=C(NC1CCCCC1)c1n[nH]nc1Cl,> 100 µM,> 100 µM,> 100 µM,> 100 µM,> 100 µM,> 100 µM,> 100 µM,> 100 µM,> 100 µM,,,,,,,,,,
CC(=O)Nc1nc2c(=O)c3ccccc3sc2s1,> 100 µM,> 100 µM,> 100 µM,> 100 µM,> 100 µM,,> 100 µM,> 100 µM,> 100 µM,,,,,,> 100 µM,,,,
CCN(CC)/[N+]([O-])=N/OS(=O)(=O)N(C)C,> 100 µM,> 100 µM,> 100 µM,> 100 µM,> 100 µM,> 100 µM,> 100 µM,> 100 µM,,,,,,,> 100 µM,,,,
Cc1cc2nnn(C3CCCCO3)c2cc1C (configuration not stated),> 100 µM,> 100 µM,> 100 µM,> 100 µM,> 100 µM,> 100 µM,> 100 µM,> 100 µM,> 100 µM,,,,,,,,,,
C/C=C1/C=CC2c3[nH]c4ccccc4c3CCN2C1 (configuration not stated),> 400 µM,> 400 µM,> 400 µM,> 400 µM,> 400 µM,,> 400 µM,> 400 µM,,,,,,,> 400 µM,,,,
c1ccc(C(NC2=NCCO2)C2CC2)cc1 (configuration not stated),> 100 µM,> 100 µM,> 100 µM,> 100 µM,> 100 µM,> 100 µM,> 100 µM,> 100 µM,,,,,,,,,,,
Cc1ccc2c(c1C)CC1(Cc3ccc(C)c(C)c3C1=O)C2=O (configuration not stated),,,> 100 µM,> 100 µM,> 100 µM,> 100 µM,> 100 µM,> 100 µM,> 100 µM,,,,,,> 100 µM,,,,
S=c1[nH]nc(Cn2c3ccc(Br)cc3c3nc4ccccc4nc32)o1,99.2 µM,> 100 µM,> 100 µM,> 82.6 µM,> 100 µM,,> 100 µM,> 100 µM,> 100 µM,,,,,,,,,,
COC(=O)C1(CCCCl)CCCN1C(=O)OC(C)(C)C (configuration not stated),> 100 µM,> 100 µM,,> 100 µM,> 100 µM,> 100 µM,> 100 µM,> 100 µM,> 100 µM,,,,,,,,,,
NC(Cc1cc(I)c(Oc2ccc(O)c(I)c2)c(I)c1)C(=O)O (configuration not stated),> 100 µM,> 100 µM,> 100 µM,> 100 µM,> 100 µM,> 100 µM,> 100 µM,> 100 µM,> 100 µM,,,,,,,,,,
CCOC(OCC)(OCC)C(Br)CC (configuration not stated),> 100 µM,> 100 µM,> 100 µM,> 100 µM,> 100 µM,> 100 µM,> 100 µM,> 100 µM,,,,,,,> 100 µM,,,,
CCN(C(=O)N[C@@H](CC(C)C)C(=O)NCC(=O)OC)c1ccccc1,> 100 µM,> 100 µM,> 100 µM,97.1 µM,> 100 µM,> 100 µM,> 100 µM,> 100 µM,> 100 µM,,,,,,,,,,
N/C(CCSCCSCC/C(N)=N\O)=N\O,> 100 µM,> 100 µM,,> 100 µM,> 100 µM,> 100 µM,> 100 µM,> 100 µM,> 100 µM,,,,,,> 100 µM,,,,
CN(/N=C/c1ccccn1)C1=NCCN1,> 100 µM,> 100 µM,> 100 µM,> 100 µM,,> 100 µM,> 100 µM,> 100 µM,> 100 µM,,,,,,> 100 µM,,,,
CCOC(=O)c1nc2ccc(C(F)(F)F)cc2nc1Oc1ccc(OC)cc1,> 100 µM,> 100 µM,> 100 µM,> 100 µM,> 100 µM,> 100 µM,> 100 µM,> 100 µM,> 100 µM,,,,,,,,,,
COc1cc(Nc2cc(Cl)cc(Cl)c2)nc(N)n1,36.6 µM,33.2 µM,39.6 µM,33.4 µM,53.9 µM,54 µM,29.7 µM,69 µM,40.8 µM,,,,,,,,,,
CC[C@@H]1CC[C@@H]2[C@H](CC[C@]3(C)[C@@H](O[N+](=O)[O-])CC[C@@H]23)[C@H]1C(C)=O,> 100 µM,33.4 µM,> 100 µM,,> 100 µM,> 100 µM,40.4 µM,80.9 µM,> 100 µM,,,,,,37 µM,,,,
Cc1cccc(C)c1NC(=O)C(=O)CC(=O)c1sc(Nc2c(C)cccc2C)nc1C,> 100 µM,> 100 µM,> 100 µM,> 100 µM,> 100 µM,> 100 µM,,> 100 µM,> 100 µM,,,,,,> 100 µM,,,,
